Consider two molecules from patent US8158088B2, “Extractant compositions for co-extracting cesium and strontium, a method of separating cesium and strontium from an aqueous feed, and calixarene compounds” (Battelle Energy Alliance, LLC, priority 2008, dated 2012).

Format in all cases: physicochemical
The nature of series [1]: Third phase formation on contact with nitric acid.
Series [2] in a line: Cesium distribution ratio (DCs), equilibrium batch contact of mixed extractant solvent with nitric acid feed. The note with it: for DCs: 1.5 HNO3. The source says: The distribution of cesium and strontium between the first organic phase (the mixed extractant solvent including the dialkyloxycalix[4]arenebenzocrown-6 compound) and the first aqueous phase (aqueous feed) may be determined by conventional techniques. The distribution ratio for strontium (“DSr”) may be calculated as the ratio of organic phase activity to the aqueous phase activity at equilibrium. High values for the DSr indicate that the strontium is present predominantly in the organic phase while low values for the DSr indicate that the strontium is present predominantly in the aqueous phase. Similarly, the distribution ratio for cesium (“DCs”) may be calculated as the ratio of organic phase activity to the aqueous phase activity at equilibrium. High values for the DCs indicate that the cesium is present predominantly in the organic phase while low values for the DCs indicate that the cesium is present predominantly in the aqueous phase.
Distribution ratios (DM=[M]org/[M]aq) were measured by equilibrium batch contacts between the organic and aqueous phases at an organic-to-aqueous phase ratio (O/A) of unity (O/A=1). All distribution ratio measurements were conducted in a temperature controlled water bath at 25±1° C. The aqueous phase was of the appropriate HNO3 concentration, to which trace quantities (typically, less than 10^−7 M each) of the major radionuclides of interest (^137Cs, ^85Sr, ^154Eu, or ^241Am) were added. The organic and aqueous phases were contacted by vortex mixing for 1 minute. All batch contact experiments were performed at ambient temperature (from approximately 20° C. to approximately 25° C.) unless otherwise noted. Following extraction, the samples were centrifuged for 1 minute and the organic and aqueous phases separated by pipet or centrifugation. The distribution ratios (DSr, or DCs) were calculated as the ratio of the appropriate specific activities in the organic and aqueous phases as determined by γ-ray counting (gamma spectroscopy). The counting time was selected to provide less than approximately 1% statistical uncertainty.
(MC-8, MC-8B, MC-10, MC-10B, MC-12, or MC-12B), 0.075 M DtBuCH18C6, 0.75 M Cs-7SB modifier, and 0.003 M TOA in ISOPAR® L were evaluated for their respective abilities to simultaneously extract cesium and strontium from the aqueous feed simulant composition described in Table 2. The cesium and strontium distribution ratios of the mixed extraction solvents were compared to those of the FPEX I process solvent. The cesium extraction performance and strontium extraction performance of each of the mixed extractant solvents was determined using the batch contact flowsheet presented in FIG. 1, where “E1,” “E2,” and “E3” refer to three forward extraction acts: a first extraction act, a second extraction act, and a third extraction act, respectively, and “St1” and “St2” refer to two backward extraction acts: a first strip act and a second strip act, respectively. […] The aqueous feed 2 and the mixed extractant solvent 4 were combined in a vessel 6 to conduct the extraction. Two phases were formed during the extraction: the first organic phase and the first aqueous phase, with the cesium and strontium substantially distributed in the first organic phase.
The cesium and strontium distribution ratios for the mixed extractant solvents 4 were calculated for the first organic phase and are reported in Tables 3 and 4, respectively, as E1, along with the cesium and strontium distribution ratios for the FPEX I process solvent. The cesium and strontium were stripped from the first (and subsequent) organic phase to recover these radionuclides. For the strips or backward extractions, the first (and subsequent) organic phase was contacted with dilute acidic solution 8, which was 0.01 M HNO3. […]

A short description of series [3]: Solvent stability: strontium distribution ratios as a function of contact time with 1.5 M HNO3. As for the experimental part:
(§1) The stability of the mixed extractant solvents prepared using dialkyloxycalix[4]arenebenzocrown-6 compounds (MC-8, MC-8B, MC-10, MC-10B, MC-12, or MC-12B) relative to BOBCalixC6 in the FPEX I process solvent was determined. Samples were prepared using each of the dialkyloxycalix[4]arenebenzocrown-6 compounds and contacted with 1.5 M HNO3. The samples included 0.007 M of the respective dialkyloxycalix[4]arenebenzo-crown-6 compound (MC-8, MC-8B, MC-10, MC-10B, MC-12, or MC-12B), 0.075 M DtBuCH18C6, 0.75 M Cs-7SB modifier, and 0.003 M TOA in ISOPAR® L. The stability of the dialkyloxycalix[4]arene-benzocrown-6 based solvents was evaluated by measuring the cesium and strontium distribution ratios as a function of contact time. These cesium and strontium distribution ratios for the mixed extractant solvents are presented in Table 9 and Table 10, respectively, along with the cesium and strontium distribution ratios for the FPEX I process solvent. The symbol “-” is used in Tables 9 and 10 to indicate no data was collected.
(§2) This degradation is likely due to chemical attack or nitration of the BOBCalixC6 in the FPEX I process solvent. […] However, it is difficult to compare the relative extents of degradation. In order to compare the different extractants, the distribution ratio data presented in Tables 9 and 10 were normalized to the values obtained at t=0 days contact. The normalized cesium and strontium distribution ratios for the FPEX I process solvent and the mixed extractant solvents as a function of contact time are presented in FIGS. 2 and 3, respectively.

Series [4] in a line: Solvent stability: cesium distribution ratios as a function of contact time with 1.5 M HNO3. As for the experimental part:
as §1, §2

Series [5] in a line: Strontium distribution ratio (DSr), equilibrium batch contact of mixed extractant solvent with nitric acid feed. The note with it: for DSr: 1.5 HNO3.
Where [6] appears, read: [DtBuCH18C6]/[MC-10B] 50/10 mM, 1.5 M Cs-5SB.
Where [7] appears, read: [DtBuCH18C6]/[MC-10B] 60/10 mM, 1.5 M Cs-5SB.
The mark [8] stands for this setting: [DtBuCH18C6]/[MC-10B] 60/15 mM, 1.5 M Cs-5SB.
Setting [9] is: [DtBuCH18C6]/[MC-10B] 90/20 mM, 1.5 M Cs-5SB in ISOPAR L, feed 0.004 M cesium nitrate, 0.002 M strontium nitrate.
The mark [10] stands for this setting: first forward extraction, 1.5 M HNO3 feed simulant, 25 °C, 0.007 M calixarene, 0.075 M DtBuCH18C6, 0.75 M Cs-7SB, 0.003 M TOA in ISOPAR L.
Where [11] appears, read: first strip with 0.01 M HNO3, 35 °C, 0.007 M calixarene solvent.
[12] abbreviates: second forward extraction, 1.5 M HNO3 feed, 25 °C, 0.007 M calixarene solvent.
Setting [13] is: second strip with 0.01 M HNO3, 35 °C, 0.007 M calixarene solvent.
Setting [14] is: third forward extraction, 1.5 M HNO3 feed, 25 °C, 0.007 M calixarene solvent.
Where [15] appears, read: contact time 0 days with 1.5 M HNO3, 0.007 M calixarene, 0.075 M DtBuCH18C6, 0.75 M Cs-7SB, 0.003 M TOA in ISOPAR L.
Where [16] appears, read: contact time 34 days with 1.5 M HNO3.
Where [17] appears, read: contact time 70 days with 1.5 M HNO3.
The mark [18] stands for this setting: contact time 278 days with 1.5 M HNO3.

The structures appear in SMILES notation. Values joined by “and” are separate entries in the source; they are usually repeats but may differ in a detail not shown here. Equal entries are not always repeated.

`CCC(C)c1ccc(OCC(O)COCC(F)(F)C(F)F)cc1` (centres unmarked) [Cs-7SB, 1-(2,2,3,3-tetrafluoropropoxy)-3-(4-sec-butylphenoxy)-2-propanol, reference compound]: the “nitric acid concentration above which a third phase forms” value in series [1] (mixed extractant solvent with Cs-7SB as modifier added to aqueous feed) is recorded as over 1.5 M.
Regarding `CC(C)CCCC(C)CCOc1c2cccc1Cc1cccc3c1OCCOCCOc1ccccc1OCCOCCOc1c(cccc1Cc1cccc(c1OCCC(C)CCCC(C)C)C3)C2` (centres unmarked) [MC-10B, 1,3-alternate-25,27-di(3,7-dimethyloctyl-1-oxy)calix[4]arenebenzocrown-6], the DCs was 2.87 and 2.88 in series [2] (setting [6]); 2.77 and 2.81 in series [2] (setting [7]); 4.48 and 4.37 in series [2] (setting [8]); 6.11 and 6.36 in series [2] (setting [9]). In series [2] (setting [10]), the “Cesium distribution ratio, contact E1” value is recorded as 3.7. Besides, the “Cesium distribution ratio, contact St1” value in series [2] (setting [11]) was 0.5. In series [2] (setting [12]), the “Cesium distribution ratio, contact E2” value is listed as 1.9. The “Cesium distribution ratio, contact St2” value in series [2] (setting [13]) was 0.2. Besides, the “Cesium distribution ratio, contact E3” value in series [2] (setting [14]) was determined as 1.5. The “Strontium distribution ratio as a function of contact time” value in series [3] (setting [15]) is given as 9.6; in series [3] (setting [16]), 8.5; in series [3] (setting [17]), 9.5; in series [3] (setting [18]), 8.0. Moreover, the third phase formation result is listed as “no formation of third phases was detected” in series [1] (up to 2 M HNO3, 0.007 M MC-10B, 0.075 M DtBuCH18C6, 0.75 M Cs-7SB in ISOPAR L); “No third phase formation was observed” in series [1] (varying MC-10B and DtBuCH18C6 concentrations, 1.5 M Cs-5SB in ISOPAR L, 1.5 HNO3). Also, the “Cesium distribution ratio as a function of contact time” value in series [4] (setting [15]) is 3.7; in series [4] (setting [16]) it was 3.0; in series [4] (setting [17]) it was 3.4; in series [4] (setting [18]), 2.8. The DSr in series [5] (setting [6]) was 4.03 and 4.11; in series [5] (setting [7]), 4.83 and 4.90; in series [5] (setting [8]), 4.73 and 4.69; in series [5] (setting [9]), 6.90 and 6.94. Besides, the “Strontium distribution ratio, contact E1” value in series [5] (setting [10]) was found to be 9.6. Besides, the “Strontium distribution ratio, contact St1” value in series [5] (setting [11]) is given as 0.06. Further, the “Strontium distribution ratio, contact E2” value in series [5] (setting [12]) was determined as 8.6. Further, the “Strontium distribution ratio, contact St2” value in series [5] (setting [13]) was 0.01. In addition, the “Strontium distribution ratio, contact E3” value in series [5] (setting [14]) is 8.3.
